Laboratory results from US20090176664A1, “High density peptide arrays containing kinase or phosphatase substrates” (priority 2007, published 2009).

Tested on: Src and Abl kinases
Assay: Kinase inhibition assay with different kinase inhibitors on peptide array with Abl and Src peptide substrates
Type: biochemical
Settings: FIG. 23; Src and Abl kinases plus one of three inhibitors
Protocol: Activity is measured using peptide arrays with Abl and Src peptide substrates.

Compound: COc1cc(Nc2c(C#N)cnc3cc(OCCCN4CCN(C)CC4)c(OC)cc23)c(Cl)cc1Cl [SKI606]
- specificity of the kinase inhibitor for their respective kinase: expected specificity
